Test systems include SF-539 CNS; SK-MEL-28 melanoma; SNB-75 CNS; NCI-H460 lung; M14 melanoma; K-562 leukemia; MOLT-4 leukemia; SNB-19 CNS; SR leukemia.
Holding throughout (assay): DTP human tumour cell line panel, 48 h

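Tested at 5 concentrations; 48 h exposure; 96-well plates; endpoints linearly interpolated, else capped at highest concentration. Definition used: TGI = concentration required for complete inhibition of growth.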

As for `Cc1ccc(C2=NO[C@@H]3C(=O)N(c4ccc(Cc5ccc(N6C(=O)[C@H]7C(c8ccc(C)cc8)=NO[C@H]7C6=O)cc5)cc4)C(=O)[C@H]23)cc1`, the TGI with SF-539 CNS, in the experiment on SK-MEL-28 melanoma, in the experiment with SNB-75 CNS, with NCI-H460 lung, in the experiment on M14 melanoma and with K-562 leukemia was above 100 µM each time.

`Cc1ccc2[nH]c(=O)c(C(C#N)c3ccccc3)nc2c1` (stereo unspecified): the total growth inhibition concentration (TGI) with SF-539 CNS, in the experiment on SK-MEL-28 melanoma, with SNB-75 CNS, with NCI-H460 lung, in the experiment with M14 melanoma and in the experiment with MOLT-4 leukemia was above 100 µM in each case. Further, the TGI was 89.2 µM in the experiment with SNB-19 CNS, above 100 µM in the experiment with SR leukemia and above 100 µM in the experiment on K-562 leukemia.

With `O=C(NCC#CCO)C(F)(F)F`, the TGI in the experiment with SF-539 CNS, in the experiment with SK-MEL-28 melanoma, in the experiment with NCI-H460 lung, with M14 melanoma, in the experiment on MOLT-4 leukemia and in the experiment on SNB-19 CNS was above 100 µM each time. Also, the TGI in the experiment on SR leukemia was above 100 µM.

`CCC(=C(c1ccc(OCc2ccccc2)cc1)c1ccc(OCc2ccccc2)cc1)c1ccc(OC)cc1`: the TGI in the experiment with SF-539 CNS, in the experiment with SK-MEL-28 melanoma, with SNB-75 CNS, in the experiment on NCI-H460 lung, in the experiment with M14 melanoma and in the experiment on MOLT-4 leukemia was above 100 µM throughout. The TGI in the experiment with SNB-19 CNS, in the experiment with SR leukemia and in the experiment on K-562 leukemia was above 100 µM in each case.

`CCOC(=O)C1=C(C)N(NC(=O)c2ccccc2)C2(O)CCCC12C(=O)OCC` (stereo unspecified): the TGI in the experiment with SF-539 CNS, in the experiment with SK-MEL-28 melanoma, in the experiment with SNB-75 CNS, with NCI-H460 lung, with M14 melanoma and with MOLT-4 leukemia was above 100 µM each time. Further, the TGI in the experiment with SNB-19 CNS, with SR leukemia and with K-562 leukemia was above 100 µM in each case.

Turning to `Cc1cc(C)n(-c2c(O)ccc(O)c2-n2nc(C)cc2C)n1`, the TGI in the experiment on SF-539 CNS, with SK-MEL-28 melanoma, in the experiment with SNB-75 CNS, with NCI-H460 lung, in the experiment on M14 melanoma and in the experiment on MOLT-4 leukemia was above 100 µM throughout. The TGI in the experiment on SNB-19 CNS and in the experiment with K-562 leukemia was above 100 µM each time.

Turning to `COc1ccc2c(c1)[n+]([O-])c(-c1nc3ccccc3s1)c(N)[n+]2[O-]`, the TGI in the experiment on SF-539 CNS, in the experiment on SK-MEL-28 melanoma, in the experiment on SNB-75 CNS, with NCI-H460 lung, in the experiment with M14 melanoma and in the experiment on MOLT-4 leukemia was above 100 µM in each case. For the same compound, the TGI with SNB-19 CNS, in the experiment with SR leukemia and with K-562 leukemia was above 100 µM in each case.

With `CC1C2=CC=C(O2)C(C)(C)C2=CC=C(O2)C(C)(C)C2=CC=C(O2)C(C)(C)C2=CC=C1O2`, the TGI in the experiment on SF-539 CNS, in the experiment with SK-MEL-28 melanoma, with NCI-H460 lung, in the experiment on MOLT-4 leukemia, in the experiment on SNB-19 CNS and with SR leukemia was above 100 µM throughout. Besides, the TGI with K-562 leukemia is above 100 µM.

On to `O=C(O)/C(Cl)=C(\Cl)C(=O)Nc1ccccc1`, for which the TGI in the experiment with SF-539 CNS, in the experiment on SK-MEL-28 melanoma, in the experiment on SNB-75 CNS, in the experiment with NCI-H460 lung, in the experiment with M14 melanoma and in the experiment with MOLT-4 leukemia was above 100 µM in each case. The TGI with SNB-19 CNS, in the experiment with SR leukemia and in the experiment with K-562 leukemia was above 100 µM each time.

Consider `CSC(=S)NNC(=O)c1ccncc1`, for which the TGI is 48.9 µM in the experiment on SF-539 CNS; 44 µM in the experiment on SK-MEL-28 melanoma; 65.7 µM in the experiment with SNB-75 CNS; above 100 µM in the experiment with NCI-H460 lung; 42.3 µM in the experiment with M14 melanoma; 55.6 µM with MOLT-4 leukemia. Besides, the values for the TGI in the experiment on SNB-19 CNS, in the experiment with SR leukemia and in the experiment on K-562 leukemia were 53.1 µM, 47.3 µM and 38.5 µM, respectively.

Consider `COC(=O)C1=CC2OC1(C)C1(CC1)C2=O` (stereo unspecified), for which the TGI is 32.1 µM in the experiment on SF-539 CNS; 50 µM in the experiment with SNB-75 CNS; 48.4 µM in the experiment on NCI-H460 lung; 29.1 µM in the experiment with M14 melanoma; 27.2 µM in the experiment with MOLT-4 leukemia; above 100 µM in the experiment on SNB-19 CNS. For the same compound, the TGI amounted to 34.6 µM in the experiment on SR leukemia and 41.9 µM in the experiment on K-562 leukemia.

As for `Nc1nc(N)c(-c2ccc(Cl)cc2)c(CCC(=O)Nc2cccc(C(F)(F)F)c2)n1`, the TGI in the experiment on SF-539 CNS, in the experiment with SK-MEL-28 melanoma, with SNB-75 CNS, in the experiment on NCI-H460 lung, in the experiment with M14 melanoma and in the experiment with MOLT-4 leukemia was above 100 µM throughout. The TGI in the experiment on SNB-19 CNS, in the experiment with SR leukemia and in the experiment on K-562 leukemia was above 100 µM each time.

Turning to `COC(=O)C1C(=O)O[C@@H](c2ccc(OC)cc2OC)C1C(=O)OC` (stereo partly specified), the TGI with SF-539 CNS, in the experiment with SK-MEL-28 melanoma, in the experiment with SNB-75 CNS, with NCI-H460 lung, in the experiment on M14 melanoma and with MOLT-4 leukemia was above 100 µM each time. The TGI in the experiment with SNB-19 CNS, in the experiment with SR leukemia and in the experiment on K-562 leukemia was above 100 µM in each case.

Turning to `CC1OC(O)CC(OC(=O)c2ccccc2)C1OC(=O)c1ccccc1` (stereo unspecified), the TGI is 31.7 µM in the experiment on SF-539 CNS; 29.6 µM in the experiment on SK-MEL-28 melanoma; above 100 µM in the experiment on NCI-H460 lung; 30.3 µM with M14 melanoma; 39 µM in the experiment on MOLT-4 leukemia; above 100 µM in the experiment with SNB-19 CNS. Moreover, the TGI in the experiment with SR leukemia is 37.1 µM; with K-562 leukemia it was 57.5 µM.

Take `Cn1c2cccc3nnc4cccc(c4c32)n1C`: the TGI in the experiment on SF-539 CNS, in the experiment on SK-MEL-28 melanoma, with NCI-H460 lung, in the experiment on M14 melanoma, in the experiment on MOLT-4 leukemia and in the experiment on SNB-19 CNS was above 100 µM in each case. Besides, the TGI in the experiment on K-562 leukemia was above 100 µM.

For the compound `C=CCN(N=O)C(=O)N(CCC)CCCCC(NC(C)=O)C(=O)NCc1ccccc1` (stereo unspecified), the TGI in the experiment with SF-539 CNS, with SK-MEL-28 melanoma, in the experiment on SNB-75 CNS, with NCI-H460 lung, with M14 melanoma and with MOLT-4 leukemia was above 100 µM in each case. Also, the TGI with SNB-19 CNS and with K-562 leukemia was above 100 µM in each case.

By TGI is commonly meant the concentration giving total growth inhibition. Read a low TGI as greater sensitivity of the cells.

Source of the values: PubChem BioAssay (NCI).
